# Where two headings read alike, the source gives them in different places.
# Columns and labels:
# [1] = test system: P. falciparum PfSR25- (knockout strain for the PfSR25 receptor); assay: In vitro growth assay with flow cytometry, PfSR25- knockout strain; format: cell-based, Plasmodium falciparum; conditions: for IC50: 72 h; for IC50 for the knockout strain compared with the 3D7 strain: PfSR25- versus 3D7
# Experimental: (§1) Erythrocytes infected with P. falciparum 3D7 and the knockout strain for the PfSR25 receptor (PfSR25-) were kept in 175 cm^2 culture bottles (Greiner Bio-One) containing RPMI 1640 with 0.5% NaHCO3, 0.04% sulfate gentamicin, 0.05% hypoxanthine and supplemented with 0.5% AlbuMAX I (Gibco). The culture bottles were maintained at 37 °C and an atmosphere with 90% N2, 5% O2 and 5% CO2 Parasitemia was determined from a blood smear stained with Panotic Rapid (Laborclin).
# (§2) Red blood cells infected with P. falciparum (iRBC) asynchronously with 0.3% initial parasitemia and 1% hematocrit were incubated with different concentrations of compounds ranging from 0.0488 µM to 50 µM, for 72 h at 37 °C under mixture of gases. The control group was treated with solvent Dimethyl Sulfoxide (DMSO) (v/v); with the highest concentration of solvent bring 0.25%.
# (§3) Parasitemia was determined from the dot plots (side scatter versus fluorescence) of at least […] acquired on an Accuri C6 flow cytometer (Becton Dickinson). Initial gating was carried out with unstained, uninfected erythrocytes to account for erythrocyte autofluorescence.
# (§4) After 72 h, iRBCs were stained with nucleic acid marker SYBR Green I (1X) (Invitrogen) and mitochondria marker based on membrane potential MitoTracker Deep Red (50 nM) (Invitrogen), and were incubated for 20 min. at 37 °C. The final parasitemia was obtained by flow cytometer using a BD Accuri C6 Flow Cytometer, collecting 10^³ cells. Dot plots using FlowJo V10.6.2 software determined Parasitemia. At least three independent experiments were performed in triplicate to calculate the IC50 values for each drug.
# We also assessed the role of PfSR25 in terms of its susceptibility to compounds with a better antimalarial activity (9, 13, 19, 21, 22, 24 and 29) and compounds with less activity (21) based on the results obtained with the 3D7 screening. Thus, the tests were carried out like that described above and are represented in Figure 5. However, we used the knockout strain for the receptor-like PfSR25- for the tests.
# [2] = test system: P. falciparum 3D7; assay: In vitro growth assay with flow cytometry, P. falciparum 3D7; format: cell-based, Plasmodium falciparum
# Experimental: as §1, §2, §3, §4
# In order to identify potential antimalarials present in the library of compounds derived from the 1H-1,2,3-triazoles and 2H-1,2,3-triazoles, we used a culture of P. falciparum (3D7) to perform the screening tests of the compounds. To assess parasitemia at the end of the parasites incubation with the compounds for 72 h, we used a double-label: (1) SYBR Green I to mark DNA and (2) MitoTracker Deep Red as a mitochondria marker. The latter being dependent on the membrane potential, we ensured that only the marking and selection of viable parasites occurred.
# [3] = test system: HEK293 cells; format: cell-based, human; conditions: 72 h; for survival of HEK293 cells (MTT): 0.0488–50 µM; for toxicity in HEK 293 cells (MTT): at the tested concentrations (0.0488–50 µM)
# Experimental: Human Embryonic Kidney Cells (HEK293) were kept in 75 cm^2 culture bottles (Greiner Bio-One) at 37 °C, 5% CO2 containing Dulbecco’s Minimal Essential Medium (DMEM), added with 10% fetal bovine serum, 1% Streptomycin and Penicillin and 3.7 g/L of NaHCO3 (Sigma). Cell passages were performed with trypsin-EDTA (Invitrocell). The number of cells was monitored by counting in a Neubauer chamber.
# To evaluate the toxicity of the triazole compounds in mammalian cells, Human Embryonic Kidney cells (HEK293). Cells were plated in flat-bottom 96-well plates at a density of 10^4 cells per well and incubated for 24 h in 150 µL media at 37 °C, 5% CO2. Cells were then treated with different concentrations of each compound, ranging from 0.0488 µM to 50 µM in 200 µL DMEM for 72 h at 37 °C and 5% CO2. Cells treated with DMSO (v/v), with the highest concentration of solvent at 0.25% were used as control. After incubation, 40 µL of MTT reagent (solution 5 mg/mL in PBS) was added to each well, and cells were incubated for further 3 h at 37 °C and 5%CO2 [35]. The media was removed, and 100 µL of DMSO was added in each well. The plates were agitated in a shaker for 10 min to dissolve precipitates. The absorbance was read at 570 nm in a FlexStation 3 (Molecular Devices). Three experiments were performed independently in triplicates.
# [4] = format: physicochemical; conditions: in our experimental conditions
# From the text: The methods used to prepare the 1-aryl-1H-1,2,3-triazoles and 2-aryl-2H-1,2,3-triazoles (54 examples) involved classical chemical transformations, and all evaluated compounds were from the group’s molecular bank and were present in other published works. […] This information can be important for future studies.
# [5] = test system: P. falciparum 3D7; conditions: cited from earlier work
# [6] = test system: P. falciparum Dd2; conditions: cited from earlier work
# [7] = Plasmodium falciparum, 3D7, 72 h, P. falciparum 3D7, 72 h, 0.0488–50 µM, ± standard error of the mean, read-out: IC50
# [8] = P. falciparum 3D7, 72 h, 0.0488–50 µM, ± standard error of the mean, read-out: IC50
molecule,measurement,setting,value
"C[C@@H]1CC[C@H]2[C@@H](C)C(=O)O[C@@H]3O[C@@]4(C)CC[C@@H]1[C@]32OO4 [Artemisinin, reference compound]",IC50,"[1]; Plasmodium falciparum, read-out: IC50 (dose-response curve, Figure 3B)",0.0058 ± 0.00172 µM
same,IC50,"[2]; Plasmodium falciparum, 3D7, 72 h, 3D7, positive control […] to 160 nM, 72 h, unit inferred, read-out: IC50 (dose-response curve, Figure 3A)",0.0062 ± 0.00073 µM
CCOCc1cn(-c2ccc(Cl)cc2)nn1 [Compound 1],IC50,[2]; [7],11.7 ± 0.74 µM
CCOCc1cn(-c2cc(Cl)cc(Cl)c2)nn1 [Compound 2],IC50,[2]; [7],15.4 ± 2.26 µM
CCCOCc1cn(-c2cc(Cl)cc(Cl)c2)nn1 [Compound 3],IC50,[2]; [7],14.5 ± 1.71 µM
CCCOCc1cn(-c2cc(Cl)ccc2Cl)nn1 [Compound 4],IC50,[2]; [7],20.4 ± 0.73 µM
CCCCOCc1cn(-c2cc(Cl)cc(Cl)c2)nn1 [Compound 5],IC50,[2]; [7],23.9 ± 2.01 µM
CCOC(=O)c1cn(-c2ccccc2)nn1 [Compound 6],IC50,[2]; [7],12.8 ± 3.02 µM
O=C(OCc1cn(-c2ccccc2)nn1)c1ccccc1 [Compound 7],IC50,[2]; [7],22.9 ± 0.34 µM
O=C(OCc1cnn(-c2ccccc2)n1)c1ccccc1 [Compound 8],IC50,[2]; [8],27.5 ± 1.26 µM
same,IC50,[2]; [7],> 25 µM
CCCCCCCCCC(=O)OCc1cn(-c2ccc(Cl)cc2)nn1 [Compound 9],survival of HEK293 cells (MTT),[3],above 80%
same,toxicity in HEK 293 cells (MTT),[3],no toxicity
same,IC50 for the knockout strain compared with the 3D7 strain,[1],lower IC50 values for the knockout strain
same,IC50,[1]; Plasmodium falciparum,1.55 ± 0.55 µM
CCCCCCCCCC(=O)OCc1cn(-c2cc(Cl)cc(Cl)c2)nn1 [Compound 10],IC50,[2]; [7],14.6 ± 0.29 µM
CCCCCCCCCC(=O)OCc1cn(-c2ccc(OC)cc2)nn1 [Compound 11],IC50,[2]; [7],23.5 ± 2.77 µM
COc1ccc(-n2cc(COC(=O)c3ccccc3)nn2)cc1 [Compound 12],IC50,[2]; [7],13.5 ± 1.12 µM
ON=Cc1cn(-c2ccc(Cl)cc2)nn1 [Compound 13],survival of HEK293 cells (MTT),[3],above 80%
same,toxicity in HEK 293 cells (MTT),[3],no toxicity
same,IC50 for the knockout strain compared with the 3D7 strain,[1],lower IC50 values for the knockout strain
same,IC50,[1]; Plasmodium falciparum,0.89 ± 0.39 µM
same,IC50,[2]; [8],6.67 ± 1.86 µM
same,IC50,[2]; [7],< 10 µM
O/N=C/c1cn(-c2cc(Cl)ccc2Cl)nn1 [Compound 14],IC50,[2]; [7],21.5 ± 0.84 µM
C(=N\Nc1ccccc1)/c1cnn(-c2ccccc2)n1 [Compound 15],IC50,[2]; [7],18.1 ± 1.92 µM
Clc1ccc(N/N=C/c2cnn(-c3ccccc3)n2)cc1 [Compound 16],IC50,[2]; [8],9.29 ± 1.01 µM
same,IC50,[2]; [7],< 10 µM
Fc1ccc(N/N=C/c2cnn(-c3ccccc3)n2)cc1 [Compound 17],IC50,[2]; [7],14.7 ± 1.28 µM
Clc1ccc(N/N=C/c2cn(-c3ccc(Cl)cc3)nn2)cc1 [Compound 18],IC50,[2]; [7],17.6 ± 1.07 µM
Fc1ccc(N/N=C/c2cn(-c3ccc(Cl)cc3)nn2)cc1 [Compound 19],survival of HEK293 cells (MTT),[3],above 80%
same,toxicity in HEK 293 cells (MTT),[3],no toxicity
same,IC50 for the knockout strain compared with the 3D7 strain,[1],lower IC50 values for the knockout strain
same,IC50,[1]; Plasmodium falciparum,2.24 ± 0.77 µM
same,IC50,[2]; [8],8.45 ± 2.25 µM
same,IC50,[2]; [7],< 10 µM
"Clc1ccc(-n2cc(/C=N/Nc3cc(Cl)ccc3Cl)nn2)cc1 [Compound 20, (E)-1-(4-chlorophenyl)-4-((2-(2,5-dichlorophenyl)hydrazono)methyl)-1H-1,2,3-triazole]",melting point,,181 to 182 °C
same,IC50,[2]; [7],13.6 ± 1.2 µM
"Clc1cc(Cl)cc(-n2cc(/C=N/Nc3ccc(Br)cc3)nn2)c1 [Compound 21, (E)-4-((2-(4-bromophenyl)hydrazono)methyl)-1-(3,5-dichlorophenyl)-1H-1,2,3-triazole]",IC50 for the knockout strain compared with the 3D7 strain,[1],lower IC50 values for the knockout strain
same,IC50,[1]; Plasmodium falciparum,12.4 ± 2.51 µM
same,IC50,[2]; [8],29.3 ± 0.34 µM
same,IC50,[2]; [7],> 25 µM
Cc1ccc(C)c(N/N=C/c2cn(-c3cc(Cl)cc(Cl)c3)nn2)c1 [Compound 23],IC50,[2]; [8],9.23 ± 1.68 µM
same,IC50,[2]; [7],< 10 µM
COc1ccc(-n2cc(/C=N/Nc3ccccc3)nn2)cc1 [Compound 24],survival of HEK293 cells (MTT),[3],above 80%
same,toxicity in HEK 293 cells (MTT),[3],no toxicity
same,IC50 for the knockout strain compared with the 3D7 strain,[1],lower IC50 values for the knockout strain
same,IC50,[1]; Plasmodium falciparum,0.99 ± 0.25 µM
"COc1ccc(-n2cc(/C=N/Nc3ccc(Cl)cc3)nn2)cc1 [Compound 25, (E)-4-((2-(4-chlorophenyl)hydrazono)methyl)-1-(4-methoxyphenyl)-1H-1,2,3-triazole]",IC50,[2]; [8],9 ± 3.27 µM
same,IC50,[2]; [7],< 10 µM
"Clc1ccc(Cl)c(N/N=C/c2cn(-c3cc(Cl)ccc3Cl)nn2)c1 [Compound 26, (E)-1-(2,5-dichlorophenyl)-4-((2-(2,5-dichlorophenyl)hydrazono)methyl)-1H-1,2,3-triazole]",melting point,,200 to 201 °C
same,IC50,[2]; [8],9.4 ± 2.87 µM
same,IC50,[2]; [7],< 10 µM
O=C(N/N=C/c1cn(-c2ccccc2)nn1)c1ccncc1 [Compound 27],IC50,[2]; [7],23.1 ± 2.58 µM
O=C(N/N=C/c1cn(-c2ccc(Cl)cc2)nn1)c1ccncc1 [Compound 28],IC50,[2]; [7],14.5 ± 1.13 µM
"O=C(N/N=C/c1cn(-c2cc(Cl)cc(Cl)c2)nn1)c1ccncc1 [Compound 29, (E)-N′-((1-(3,5-dichlorophenyl)-1H-1,2,3-triazol-4-yl)methylene)isonicotinohydrazide]",survival of HEK293 cells (MTT),[3],above 80%
same,toxicity in HEK 293 cells (MTT),[3],no toxicity
same,IC50,[1]; Plasmodium falciparum,9.91 ± 2.94 µM
same,IC50,[2]; [8],6.96 ± 1.44 µM
same,IC50,[2]; [7],< 10 µM
COc1ccc(-n2cc(/C=N/NC(=O)c3ccncc3)nn2)cc1 [Compound 30],IC50,[2]; [7],23.2 ± 1.94 µM
O=C(N/N=C/c1cnn(-c2ccccc2)n1)c1ccncc1 [Compound 31],IC50,[2]; [7],20.2 ± 0.79 µM
"COc1ccc(-n2cc(/C=N/Nc3ccc(Br)cc3)nn2)cc1 [Compound 52, (E)-4-((2-(4-bromophenyl)hydrazono)methyl)-1-(4-methoxyphenyl)-1H-1,2,3-triazole]",melting point,,230 to 231 °C
same,solubilization,[4],weren’t able to be solubilized
"COc1ccc(-n2cc(/C=N/Nc3ccc(F)cc3)nn2)cc1 [Compound 53, (E)-4-((2-(4-fluorophenyl)hydrazono)methyl)-1-(4-methoxyphenyl)-1H-1,2,3-triazole]",melting point,,195 to 197 °C
same,solubilization,[4],weren’t able to be solubilized
"COc1ccc(-n2cc(/C=N/Nc3cc(C)ccc3C)nn2)cc1 [Compound 54, (E)-4-((2-(2,5-dimethylphenyl)hydrazono)methyl)-1-(4-methoxyphenyl)-1H-1,2,3-triazole]",solubilization,[4],weren’t able to be solubilized
CCOC(=O)C1CN(Cc2c[nH]nn2)c2cc(Cl)c(F)cc2C1=O (stereo not drawn) [III],IC50,[5],1.33 µM
O=[N+]([O-])c1ccc(-n2cc(COc3ccc4cc(Br)ccc4c3)nn2)cc1 [I],IC50,[5],14.7 µM
same,IC50,[6],13.6 µM
"(E)-1-(3,5-dichlorophenyl)-4-((2-(2,5-dimethylphenyl)hydrazono)methyl)-1H-1,2,3-triazole [Compound 22]",survival of HEK293 cells (MTT),[3],above 80%
same,toxicity in HEK 293 cells (MTT),[3],no toxicity
same,IC50,"[1]; PfSR25- knockout strain, ± standard error of the mean, read-out: IC50",4.41 ± 0.6 µM
same,IC50 for the knockout strain compared with the 3D7 strain,[1],lower IC50 values for the knockout strain
same,IC50,[2]; [8],5.56 ± 0.47 µM

# — paper PMC7465636 (Biomolecules, 2020)
